Reference: patent publication US10934303B2, “Aryl ethene derivative and pharmaceutical composition containing same as active ingredient” (priority 2016, dated 2021)
Read-outs that look alike come from different tables or passages of the source.

Tests used:
[1] = target: GST-bound ERR alpha LBD (Homo sapiens (Human), UniProt P11474); details: TR-FRET, PGC1a coactivator; read-out: Binding Assay, IC50 ERRα
Method: (§3) The arylethene derivative of the present invention was sequentially added to a 384 well plate from a concentration of 10 μM to a final concentration of two-fold dilution. […] After all reagents were added, a reaction was carried out with gentle shaking at 20° C. for 1 hour, and after the reaction, a binding activity was measured by a TR-FRET method.

[2] = target: GST-bound ER alpha ligand-binding domain (LBD) (Homo sapiens (Human), UniProt P03372); experiment: biochemical; details: TR-FRET, beta-estradiol 4 nM as agonist; read-out: Binding Assay, IC50 ERα
Method: as §3

[3] = target: GST-bound ERR gamma ligand-binding domain (LBD) (Homo sapiens (Human), UniProt P62508); experiment: ERRγ binding assay (inverse agonist assay), TR-FRET; details: TR-FRET, PGC1a coactivator; read-out: Binding Assay, IC50 ERRγ
Method: 1) ERRγ Binding Assay (Inverse Agonist Assay)
as §3

[4] = target: T1, hERG channel (Homo sapiens (Human), UniProt Q12809); experiment: biochemical
[5] = system: ERRγ; type: cell-based; details: for Functional Assay at 10 μM (% of control), Cpds: 24 hours, AD293
Method: AD293 was cultured in a 24-well plate for 24 hours, using a DMEM High glucose culture medium (Hyclone, USA) to which 0.5% FBS was added at a concentration of 9×10^4/well. The culture medium was replaced with a DMEM High glucose culture medium to which 10% FBS was added, treatment was performed with a mixture of a TransIT-LT1 transfection reagent (Mirus, USA) and pCMX-Gal4-ERRγ, pFR-luciferase reporter plasmid, pCMV-β-gal, and culturing was performed for 24 hours. Thereafter, a luciferase activity assay and a β-gal assay were performed, respectively, with a lysate obtained after treatment with the arylethene derivative of the present invention for 24 hours. All results were derived from three or more independent repetitive experiments.

[6] = target: CYP1A2 (Homo sapiens (Human), UniProt P05177); experiment: Cytochrome P450 activity inhibition, CYP1A2; type: in vitro ADME; details: 10 μM, human liver microsomes, Phenacetin substrate
From the text: (§1) 1) Cytochrome P450 (CYP450) Activity Inhibition Evaluation

[7] = system: CAL-62/effluc tumor; experiment: Tumor growth by bioluminescent imaging in CAL-62/effluc mouse tumor model; type: in vivo, Nude mice (Balb/c nu/nu); details: 100 mpk, 200 mpk orally daily for 6 days
Method: (§4) Nude mice (Balb/c nu/nu, female, 6 weeks old) were used, and all animals were normally raised in DMRC center animal laboratory of Kyungbuk National University Hospital in Chilgok. 5×10^6 CAL-62/effluc cells were subcutaneously injected into the left femoral region of the nude mouse to form a tumor. The tumor was extracted, divided into small pieces (20 mg or more), and then intradermally injected into the nude mouse to form a tumor.
In order to observe a difference in tumor growth between before administration and after administration, optical imaging (bioluminescent imaging) was performed.
For obtaining an optical image, D-luciferin (3 mg/mouse) was intraperitoneally injected to the mouse. After about 10 minutes of injection, the mouse was anesthetized by inhalation (I-2% isoflurane gas), and then positioned on a IVIS Lumina III (PerkinElmer) imaging bed. The time for obtaining the image was automatically set, and then an optical image was obtained.

[8] = system: ERRγ mRNA; experiment: Quantitative RT-PCR, ERRγ mRNA in CAL62 cells; type: cell-based
Method: (§2) Total RNA was separated using Trizol (Invitrogen, Carlsbad, Calif.). Total RNA (2 ug) was reverse-transcribed into cDNA with RevertAid First Strand cDNA Synthesis Kit (Thermo Scientific, Pittsburgh, Pa.). Genes were amplified with a ViiA 7 Real-Time PCR System instrument (Applied Biosystems) using the primer of each target gene and YBR Green PCR master mix (Applied Biosystems, Foster City, Calif.), using a cDNA template. The primer sequence of each target gene is as follows: ERRγ (forward, 5′-CAG ACG CCA GTG GGA GCT A-3′; reverse, 5′-TGGCGAGTCAAGTCCGTTCT-3′), NIS (forward, 5′-TCTAACCGATGCTCACCTCTTCTG-3′; reverse, 5′-AGATGATGGCACCTCCTTGAACC-3′), and acidic ribosomal protein 36B4 (forward, 5′-CCA CGC TGC TGA ACA TGC T-3′; reverse, 5′-TCGAACACCTGCTGGATGAC-3′). Each target gene was normalized using a 36B4 gene.

[9] = target: T1, hERG channel; details: read-out: hERG IC50; fluorescence polarization assay
[10] = system: NIS mRNA; experiment: Quantitative RT-PCR, NIS mRNA in CAL62 cells; type: cell-based
Method: as §2

[11] = target: CYP3A4 (Homo sapiens (Human), UniProt P08684); experiment: Cytochrome P450 activity inhibition, CYP3A4; type: in vitro ADME; details: 10 μM, human liver microsomes, Midazolam substrate
From the text: as §1

[12] = target: CYP2C9 (Homo sapiens (Human), UniProt P11712); experiment: Cytochrome P450 activity inhibition, CYP2C9; type: in vitro ADME; details: 10 μM, human liver microsomes, Diclofenac substrate
From the text: as §1

[13] = system: CAL-62 anaplastic thyroid cancer cell line; type: cell-based
[14] = target: CYP2C19 (Homo sapiens (Human), UniProt P33261); experiment: Cytochrome P450 activity inhibition, CYP2C19; type: in vitro ADME; details: 10 μM, human liver microsomes, S-mephenytoin substrate
From the text: as §1

[15] = system: CAL-62/effluc tumor; experiment: 125I bio-distribution study in CAL-62/effluc mouse tumor model; type: in vivo, Nude mice (Balb/c nu/nu)
Method: as §4
After 4 hours of administration, all organs including a parent tumor were extracted, and each organ was weighed. Thereafter, each organ was transferred to a 5 mL test tube, and radioactivity in the organ was measured using a gamma counter.

[16] = system: NIS protein; experiment: Western blot, total and membrane-localized NIS protein in CAL62 cells; type: cell-based
[17] = in vitro; type: in vitro ADME; parameters: Papp at 5 h: dose or concentration left out as unconfirmed; details: PBS pH 7.4, 25° C.; for Papp at 5 h: PAMPA, read-out: Permeability Pampa
Method: 3) Parallel Artificial Membrane Permeability Assay (PAMPA) Evaluation
PAMPA is a method which has been developed for testing cell membrane permeability of a material in a test tube, and has been performed using a lipid tri-layer PVDF membrane available from Corning Gentest (NY, US), the used reagents were all purchased from Sigma (MO, US). First, a test material is diluted in PBS (pH 7.4) to a final concentration of 10 mM, 300 mL of the solution is added to the bottom well of a 96-transwell equipped with a PVDF membrane, and 200 mL of PBS is added to the upper well. Then, a plate is reacted at 25° C. for 5 hours, 20 mL of the solution in each well is transferred to a new container, and 80 mL of acetonitrile containing an internal standard material (4 mM chloropropamide) is added thereto. A concentration of the material in the solution is analyzed using LC-MS/MS (ThermoFisher Scientific, MO, US), and the transmittance of the material is calculated according to the equation reported in the reference document.

[18] = in vivo; type: in vivo; details: rat
Method: An oral administration group fasts the day before.
Blood of each animal is collected at 0 hour.
Into a tail vein of an intravenous administration group (IV), a drug is injected at a dose of 1 mg/kg (syringe).
To an oral administration group (PO), a drug is orally administered at a dose of 10 mg/kg (oral zondec)
After administration, blood of the intravenous administration group was collected through a jugular vein 8 times at 0.08, 0.25, 0.5, 1, 2, 4, 6, and 8 hours. One collected blood amount is 400 to 500 ul.
After administration, blood of the oral administration group was collected through a jugular vein 6 times at 0.25, 0.5, 1, 4, 6 and 8 hours. One collected blood amount is 400 to 500 ul.
Supernatant plasma is collected by a centrifuge.
The supernatant plasma was injected into a LC-MS/MS system and the drug is analyzed.

[19] = target: CYP2D6 (Homo sapiens (Human), UniProt P10635); experiment: Cytochrome P450 activity inhibition, CYP2D6; type: in vitro ADME; details: 10 μM, human liver microsomes, Dextromethorphan substrate
From the text: as §1

[20] = system: ERRγ protein; experiment: Western blot, ERRγ protein in CAL62 cells; type: cell-based; details: 24 hours
[21] = system: CAL62 cells; experiment: Clonogenic assay with 131I; type: cell-based
Method: The cells were plated in a 6-well plate, and allowed to stand for 24 hours. […] The cells were washed with cold bHBSS, and allowed to stand in a normalized culture medium for a time corresponding to six doublings. Finally, the cells were fixed in a 4% paraformaldehyde (PFA) solution and stained with 0.05% crystal violet.

[22] = 1 μM, 30 minutes, 37° C., NADPH
[23] = 1 μM, 30 minutes, 37° C., NADPH; remark: listed apart in the source
[24] = 1 μM, 30 minutes, 37° C., NADPH; remark: listed apart in the source
Method: 2) Microsomal Stability Evaluation
(§5) Four liver microsomes (Human, Dog, Rat, Mouse 0.5 mg/ml) with a 0.1 M phosphate buffer solution (pH 7.4), and the arylethene derivative of the present invention were added to a concentration of 1 μM, culturing was performed at 37° C. for 5 minutes in advance, a NADPH regeneration system solution was added thereto, and culturing was performed at 37° C. for 30 minutes. Thereafter, in order to complete the reaction, an acetonitrile solution containing an internal standard material (chlorpropamide) was added thereto, centrifugation (14,000 rpm, 4° C.) was performed for 5 minutes, and a supernatant was injected into a LC-MS/MS system to analyze the substrate drug, thereby evaluating metabolism stability to the arylethene derivative of the present invention.

[25] = 1 μM, 30 minutes, 37° C., NADPH; remark: listed apart in the source
Method: 2) Microsomal Stability Evaluation
as §5

[26] = target: ERRβ (Homo sapiens, UniProt O95718); details: TR-FRET, PGC1a coactivator; read-out: Binding Assay, IC50 ERRβ
Method: as §3

[27] = system: pERK1/2; experiment: Western blot, phosphorylated ERK1/2 in CAL62 cells; type: cell-based; details: MEK inhibitor
[28] = system: CAL-62/effluc tumor; details: background statement; cited from earlier work
[29] = activity relative to reference compound GSK5182, 10 μM

Chain of CYP3A4 (P08684 whole entry): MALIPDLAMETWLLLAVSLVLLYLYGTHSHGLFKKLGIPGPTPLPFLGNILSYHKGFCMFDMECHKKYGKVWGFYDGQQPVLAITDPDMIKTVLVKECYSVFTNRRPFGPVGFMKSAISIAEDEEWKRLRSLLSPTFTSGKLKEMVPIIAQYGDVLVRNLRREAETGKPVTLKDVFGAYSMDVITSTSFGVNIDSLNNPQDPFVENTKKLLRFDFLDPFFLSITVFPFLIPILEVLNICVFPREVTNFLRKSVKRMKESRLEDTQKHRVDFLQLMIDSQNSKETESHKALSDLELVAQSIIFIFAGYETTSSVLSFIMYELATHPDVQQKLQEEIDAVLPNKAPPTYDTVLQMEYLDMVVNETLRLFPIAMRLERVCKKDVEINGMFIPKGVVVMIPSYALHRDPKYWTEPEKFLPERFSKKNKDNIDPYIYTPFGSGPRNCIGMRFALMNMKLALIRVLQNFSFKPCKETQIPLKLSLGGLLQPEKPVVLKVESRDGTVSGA
Chain of CYP1A2 (P05177 whole entry): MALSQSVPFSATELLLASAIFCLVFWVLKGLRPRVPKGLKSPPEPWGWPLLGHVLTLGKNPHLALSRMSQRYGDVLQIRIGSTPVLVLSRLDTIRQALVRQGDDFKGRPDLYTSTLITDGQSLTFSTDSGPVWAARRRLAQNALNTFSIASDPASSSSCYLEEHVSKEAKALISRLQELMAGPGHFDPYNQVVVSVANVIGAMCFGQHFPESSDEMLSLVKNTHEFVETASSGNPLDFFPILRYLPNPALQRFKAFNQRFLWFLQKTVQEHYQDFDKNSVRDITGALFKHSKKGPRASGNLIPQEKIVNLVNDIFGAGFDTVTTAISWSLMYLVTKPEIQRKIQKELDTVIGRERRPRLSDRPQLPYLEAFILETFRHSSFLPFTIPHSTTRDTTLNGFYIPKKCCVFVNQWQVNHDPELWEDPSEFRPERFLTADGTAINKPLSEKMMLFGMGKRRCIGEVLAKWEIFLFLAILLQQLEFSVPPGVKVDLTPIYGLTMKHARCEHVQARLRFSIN
Chain of CYP2C19 (P33261 whole entry): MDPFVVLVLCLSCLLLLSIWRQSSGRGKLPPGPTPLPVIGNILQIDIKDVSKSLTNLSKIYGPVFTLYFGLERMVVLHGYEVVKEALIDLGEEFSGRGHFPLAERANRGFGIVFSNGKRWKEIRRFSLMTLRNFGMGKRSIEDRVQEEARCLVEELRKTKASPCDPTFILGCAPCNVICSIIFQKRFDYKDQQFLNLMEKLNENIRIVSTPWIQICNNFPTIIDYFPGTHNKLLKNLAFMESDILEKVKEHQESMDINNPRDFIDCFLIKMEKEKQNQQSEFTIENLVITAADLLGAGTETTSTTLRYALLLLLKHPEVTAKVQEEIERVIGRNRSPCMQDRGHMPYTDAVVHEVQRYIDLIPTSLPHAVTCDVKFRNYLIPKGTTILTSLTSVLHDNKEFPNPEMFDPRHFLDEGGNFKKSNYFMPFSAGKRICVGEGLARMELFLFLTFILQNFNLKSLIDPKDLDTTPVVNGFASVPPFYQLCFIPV
Chain of GST-bound ER alpha ligand-binding domain (LBD) (P03372 whole entry, looked up, the tested form may be a part): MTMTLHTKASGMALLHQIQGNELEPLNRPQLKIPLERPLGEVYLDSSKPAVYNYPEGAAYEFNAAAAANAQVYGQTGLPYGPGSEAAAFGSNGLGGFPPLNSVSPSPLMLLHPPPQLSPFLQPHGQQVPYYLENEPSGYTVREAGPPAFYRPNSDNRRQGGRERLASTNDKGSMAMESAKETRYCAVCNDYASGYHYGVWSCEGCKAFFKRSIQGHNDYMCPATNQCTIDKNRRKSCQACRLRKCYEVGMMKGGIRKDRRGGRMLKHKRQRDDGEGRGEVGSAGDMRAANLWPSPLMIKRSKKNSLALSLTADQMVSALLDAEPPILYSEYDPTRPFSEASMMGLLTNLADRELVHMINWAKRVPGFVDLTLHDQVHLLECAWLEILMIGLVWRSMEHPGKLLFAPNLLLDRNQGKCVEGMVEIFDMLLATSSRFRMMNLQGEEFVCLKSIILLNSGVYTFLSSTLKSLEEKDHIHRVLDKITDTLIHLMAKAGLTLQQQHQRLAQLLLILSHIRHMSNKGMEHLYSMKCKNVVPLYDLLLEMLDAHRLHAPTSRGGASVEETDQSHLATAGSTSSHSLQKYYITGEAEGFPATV
Chain of GST-bound ERR gamma ligand-binding domain (LBD) (P62508 233-457): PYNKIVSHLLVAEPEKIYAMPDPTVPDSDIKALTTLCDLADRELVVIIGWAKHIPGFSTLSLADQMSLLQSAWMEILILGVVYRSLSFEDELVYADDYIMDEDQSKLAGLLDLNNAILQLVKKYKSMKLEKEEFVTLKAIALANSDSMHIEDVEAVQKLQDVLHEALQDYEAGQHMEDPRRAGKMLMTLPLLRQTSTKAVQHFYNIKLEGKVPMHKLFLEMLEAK
Chain of GST-bound ERR alpha LBD (P11474 193-421): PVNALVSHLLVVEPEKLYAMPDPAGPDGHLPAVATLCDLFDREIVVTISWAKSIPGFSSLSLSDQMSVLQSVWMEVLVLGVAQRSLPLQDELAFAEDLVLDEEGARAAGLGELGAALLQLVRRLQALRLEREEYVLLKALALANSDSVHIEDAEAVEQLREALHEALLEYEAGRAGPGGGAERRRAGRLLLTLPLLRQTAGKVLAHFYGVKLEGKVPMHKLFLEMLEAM
Chain of CYP2D6 (P10635 whole entry): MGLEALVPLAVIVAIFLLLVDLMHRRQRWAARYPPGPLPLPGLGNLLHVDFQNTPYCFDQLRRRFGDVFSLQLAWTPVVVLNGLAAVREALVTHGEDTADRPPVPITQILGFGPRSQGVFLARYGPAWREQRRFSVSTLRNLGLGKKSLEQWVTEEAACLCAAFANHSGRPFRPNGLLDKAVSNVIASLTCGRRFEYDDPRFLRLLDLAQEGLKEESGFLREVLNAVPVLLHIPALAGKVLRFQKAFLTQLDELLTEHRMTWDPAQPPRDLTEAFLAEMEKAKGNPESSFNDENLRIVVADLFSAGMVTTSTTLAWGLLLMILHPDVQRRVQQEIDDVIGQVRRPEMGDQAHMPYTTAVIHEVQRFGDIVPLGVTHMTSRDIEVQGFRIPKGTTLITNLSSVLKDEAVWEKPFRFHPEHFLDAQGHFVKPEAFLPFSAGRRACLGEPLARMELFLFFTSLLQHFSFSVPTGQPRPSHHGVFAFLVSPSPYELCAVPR
Chain of CYP2C9 (P11712 whole entry): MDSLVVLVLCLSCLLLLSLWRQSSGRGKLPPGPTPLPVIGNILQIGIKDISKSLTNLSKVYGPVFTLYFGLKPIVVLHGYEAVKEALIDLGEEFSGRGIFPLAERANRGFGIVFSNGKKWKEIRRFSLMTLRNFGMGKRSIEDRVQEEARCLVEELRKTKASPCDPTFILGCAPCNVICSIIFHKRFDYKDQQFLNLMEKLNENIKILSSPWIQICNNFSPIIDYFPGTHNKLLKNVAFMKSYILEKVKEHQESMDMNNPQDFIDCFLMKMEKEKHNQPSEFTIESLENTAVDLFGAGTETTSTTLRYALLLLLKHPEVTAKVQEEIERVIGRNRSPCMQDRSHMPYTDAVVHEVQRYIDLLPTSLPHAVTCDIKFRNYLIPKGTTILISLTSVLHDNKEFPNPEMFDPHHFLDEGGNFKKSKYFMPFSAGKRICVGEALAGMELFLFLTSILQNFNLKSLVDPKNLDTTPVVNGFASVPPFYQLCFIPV
Chain of ERRβ (O95718 whole entry, looked up): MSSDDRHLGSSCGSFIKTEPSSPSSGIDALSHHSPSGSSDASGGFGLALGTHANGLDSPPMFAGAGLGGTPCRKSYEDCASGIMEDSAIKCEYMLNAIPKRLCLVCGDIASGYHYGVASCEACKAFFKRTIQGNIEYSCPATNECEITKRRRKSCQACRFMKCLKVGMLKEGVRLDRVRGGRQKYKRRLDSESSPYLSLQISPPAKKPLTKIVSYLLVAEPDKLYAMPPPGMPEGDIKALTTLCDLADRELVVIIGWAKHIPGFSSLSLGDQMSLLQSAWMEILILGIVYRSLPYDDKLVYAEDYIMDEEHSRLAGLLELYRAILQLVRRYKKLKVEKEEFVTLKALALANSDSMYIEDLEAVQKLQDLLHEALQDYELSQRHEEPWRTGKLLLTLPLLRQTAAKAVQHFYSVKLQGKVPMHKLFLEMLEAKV

For OCCC/C(=C(\c1ccc(O)cc1)c1ccc(OCCN2CCCCC2)cc1)c1ccccc1 [Compound 6d], the IC50 [1] was over 10 µM, the IC50 [2] was 0.262 µM and the IC50 [3] was 0.093 µM. For the same compound, the IC50 [4] was over 30 µM, the “Functional Assay, Cpds/Ref 5182” value [5] was 1.69 and the “Functional Assay at 10 μM (% of control), Cpds” value [5] was 5.2 % of control.
Work on OCCC/C(=C(\c1ccc(O)cc1)c1ccc(OCCN2CC2)cc1)c1ccccc1 [Compound 6f] yielded an IC50 [1] of over 10 µM, an IC50 [2] of 0.296 µM and an IC50 [3] of 0.059 µM. For the same compound, the IC50 [4] was over 30 µM, the “Functional Assay at 10 μM (% of control), Cpds” value [5] was 6.75 % of control and the “Functional Assay, Cpds/Ref 5182” value [5, 29] was 2.19.
For CC(C)N1CCN(c2ccc(C(=C(CCCO)c3ccccc3)c3ccc(O)cc3)cc2)CC1 [Compound 18a], the “CYP inhibition (% of control) 1A2” value [6] was 88 % of control, the “tumor growth (optical imaging)” value [7] was “significant tumor growth inhibitory efficiency” and the “ERRγ mRNA expression, decrease compared with vehicle treated group” value [8] was “about 16 times”. The IC50 [9] was 18.7 µM, the “NIS mRNA expression, increase compared with vehicle-treated group” value [10] was “about 2 times” and the IC50 [1] was over 10 µM. The “CYP inhibition (% of control) 3A4” value [11] was 66.4 % of control, the “CYP inhibition (% of control) 2C9” value [12] was 86.1 % of control and the “radioactive iodine uptake in CAL62 cells” value ([13]; for each concentration and each time) was “significant increase”. The “CYP inhibition (% of control) 2C19” value [14] was 81.2 % of control, the “radioactive uptake in CAL62 tumor, increase compared with vehicle group” value ([15]; 100 mpk orally daily for 6 days) was 4.4 times and the “radioactive uptake in CAL62 tumor, increase compared with vehicle group” value ([15]; 200 mpk orally daily for 6 days) was 16.2 times. The “Functional Assay at 10 μM (% of control), Cpds” value [5] was 4.83 % of control, the “Functional Assay, Cpds/Ref 5182” value [5, 29] was 1.18 and the “increase in membrane fully glycosylated NIS protein” value ([16]; biotinylated membrane protein) was 8.1 times. The “increase in membrane partially glycosylated NIS protein” value ([16]; biotinylated membrane protein) was 6.4 times, the “total NIS protein expression, change compared with vehicle treated group” value ([16]; text says significantly increased, then 'decreased by') was “about 1.9 times” and the “Permeability Pampa” value ([17]; 5 hours) was 0.46 10^−6 cm/s. It also gave an AUCINF ([18]; IV, 1 mg/kg) of 0.49 μMh, an AUCall ([18]; IV, 1 mg/kg) of 0.42 μMh and a Vss ([18]; IV, 1 mg/kg) of 25.2 L/kg. The t1/2 ([18]; IV, 1 mg/kg) was 3.8 h, the AUCINF ([18]; PO, 10 mg/kg) was 1.29 μMh and the AUCall ([18]; PO, 10 mg/kg) was 0.81 μMh. The BA ([18]; PO, 10 mg/kg) was 21.4%, the Tmax ([18]; PO, 10 mg/kg) was 1.1 h and the Cmax ([18]; PO, 10 mg/kg, read-out: Cmax) was 210 nM. The “CYP inhibition (% of control) 2D6” value [19] was 63.5 % of control, the “ERRγ protein expression, decrease compared with vehicle treated group” value [20] was “about 2.8 times” and the “cytotoxic effect, alone (clone formation assay)” value ([21]; CAL62 cells, single agent) was “minimal cytotoxic effect”.
With CN1CCN(c2ccc(/C(=C(/CCCO)c3ccccc3)c3ccc(N)cc3)cc2)CC1 [Compound 26a, (Z)-5-(4-aminophenyl)-5-(4-(4-methylpiperazin-1-yl)phenyl)-4-phenylpent-4-en-1-ol] the “CYP inhibition (% of control) 1A2” value [6] was >100 % of control, the “MS(Microsomal Stability) (%) human” value [22] was 72.3% and the IC50 [4] was over 30 µM. For the same compound, the “CYP inhibition (% of control) 2C19” value [14] was 89 % of control, the “MS(Microsomal Stability) (%) rat” value [23] was 46.7% and the “Functional Assay at 10 μM (% of control), Cpds” value [5] was 2.66 % of control. For the same compound, the “Functional Assay, Cpds/Ref 5182” value [5, 29] was 0.84 and the Papp at 5 h [17] was 1.58 ×10⁻⁶ cm/s.
In the case of Nc1ccc(/C(=C(\CCCO)c2ccccc2)c2ccc(C3CCN(C4CC4)CC3)cc2)cc1 [Compound 26d], the “CYP inhibition (% of control) 1A2” value [6] is reported as >100 % of control, the “MS(Microsomal Stability) (%) dog” value [24] is reported as 51.5% and the “CYP inhibition (% of control) 3A4” value [11] is reported as 57.3 % of control. The “CYP inhibition (% of control) 2C9” value [12] was 96.6 % of control, the “MS(Microsomal Stability) (%) human” value [22] was 77.5% and the IC50 [4] was 26 µM. The “CYP inhibition (% of control) 2C19” value [14] was >100 % of control, the “MS(Microsomal Stability) (%) rat” value [23] was 72.2% and the Papp at 5 h [17] was 1.04 ×10⁻⁶ cm/s. The “CYP inhibition (% of control) 2D6” value [19] was 86.1 % of control and the “MS(Microsomal Stability) (%) mouse” value [25] was 38.3%.
Compound OCCC/C(=C(\c1ccc(O)cc1)c1ccc(OCCN2CC3CC3C2)cc1)c1ccccc1 (stereo not drawn) [Compound 38a, (Z)-4-(1-(4-(2-(3-azabicyclo[3.1.0]hexan-3-yl)ethoxy)phenyl)-5-hydroxy-2-phenylpent-1-en-1-yl)phenol] has an IC50 [26] of 8.13 µM, an IC50 [1] of over 10 µM and an IC50 [2] of 0.437 µM. The IC50 [3] was 0.079 µM, the IC50 [4] was 16.1 µM and the “Functional Assay at 10 μM (% of control), Cpds” value [5] was 1.45 % of control. The “Functional Assay, Cpds/Ref 5182” value [5, 29] was 1.42.
With N#CC(=C(/N)Sc1ccccc1N)/C(C#N)=C(\N)Sc1ccccc1N [Compound U0126] the “inhibition of radioactive iodine uptake increase by compound 18a” value ([13]; MEK inhibitor pre-incubation 30 minutes) was “completely inhibited” and the “inhibition of relative increase of phosphorylated ERK1 and ERK2 by compound 18a” value [27] was “completely inhibited”.
For CN(C)CCOc1ccc(/C(=C(/CCCO)c2ccccc2)c2ccc(O)cc2)cc1 [GSK5182, (Z)-4-(1-(4-(2-(dimethylamino)ethoxy)phenyl)-5-hydroxy-2-phenylpent-1-en-1-yl)phenol, reference compound], the “radioiodine uptake in the tumor, ATC mouse tumor model” value [28] is listed as “not increased”, the “CYP inhibition (% of control) 3A4” value [11] is listed as 83 % of control and the “MS(Microsomal Stability) (%) human” value [22] is listed as 42.8-45.1%. The “MS(Microsomal Stability) (%) rat” value [23] was 26.0-29.1%, the Papp at 5 h [17] was 0.11 to 0.82 ×10⁻⁶ cm/s and the half-life ([18]; in vivo, IV, 1 mg/kg) was 2.3 h. For the same compound, the Vd ([18]; in vivo, IV, 1 mg/kg, read-out: Vss) was 9.1 L/kg, the CL/F ([18]; in vivo, PO, 10 mg/kg, read-out: Cl(observed)/F) was 134 mL/min/kg and the Tmax ([18]; in vivo, PO, 10 mg/kg, read-out: Tmax) was 1.9 h. The AUCINF ([18]; IV, 1 mg/kg) was 0.94 μMh, the AUCall ([18]; IV, 1 mg/kg) was 0.89 μMh and the “Cl(observed)/F” value ([18]; IV, 1 mg/kg) was 44 mL/min/kg. It also gave an AUCINF ([18]; PO, 10 mg/kg) of 0.78 μMh, an AUCall ([18]; PO, 10 mg/kg) of 0.68 μMh and a BA ([18]; PO, 10 mg/kg) of 8.4%. For the same compound, the Cmax ([18]; in vivo, po, 10 mg/kg) was 130 nM and the “colony-formability, combining 131I and GSK5182” value ([21]; CAL-62, combination with 131I) was “about 58.5±7.4%”.
With [K+].[O-][Cl+3]([O-])([O-])[O-] [KClO4] the “block of radioactive iodine uptake increased in compound 18a-treated cells” value ([13]; co-incubated with compound 18a-treated CAL62 cells, 300 μM KClO4) was “completely blocks”.
With COc1cccc(-c2cc(=O)c3ccccc3o2)c1N [PD98059] the “inhibition of radioactive iodine uptake increase by compound 18a” value [13] was “completely inhibited” and the “inhibition of relative increase of phosphorylated ERK1 and ERK2 by compound 18a” value [27] was “completely inhibited”.
